Assay results as given in ChEMBL document CHEMBL1795225, “Flavonoids as inhibitors of human CD38” (Bioorg Med Chem Lett, 2011).

Target: T1, ADP-ribosyl cyclase/cyclic ADP-ribose hydrolase 1 (Homo sapiens, UniProt P28907)
T1 sequence (P28907 whole entry): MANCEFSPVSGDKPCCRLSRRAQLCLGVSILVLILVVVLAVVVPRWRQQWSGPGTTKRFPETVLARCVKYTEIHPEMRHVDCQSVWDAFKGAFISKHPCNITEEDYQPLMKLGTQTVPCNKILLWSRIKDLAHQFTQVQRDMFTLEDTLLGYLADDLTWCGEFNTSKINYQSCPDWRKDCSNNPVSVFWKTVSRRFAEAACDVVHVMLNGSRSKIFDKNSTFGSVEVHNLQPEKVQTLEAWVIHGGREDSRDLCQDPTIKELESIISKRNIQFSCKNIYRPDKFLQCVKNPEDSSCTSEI
Experiment: Inhibition of human CD38 using 20 uM 1, N6-etheno NAD+ as substrate by continuous fluorimetric method

SMILES	IC50
Oc1ccc(-c2[o+]c3cc(O)c(O)c(O)c3cc2O)cc1O	14.2 µM
Oc1cc(O)c2c(c1)OC(c1ccc(O)c(O)c1)C(O)C2 (racemic) [CATECHIN]	> 100 µM
Oc1cc(O)c2cc(O)c(-c3ccc(O)c(O)c3)[o+]c2c1 [CYANIDIN]	21.8 µM
Oc1cc(O)c2cc(O)c(-c3cc(O)c(O)c(O)c3)[o+]c2c1 [DELPHINIDIN]	14.6 µM
COc1ccc(-c2ccc3c(O)cc(O)cc3[o+]2)cc1O [DIOSMETINIDIN]	32.1 µM
Oc1ccc2cc(O)c(-c3ccc(O)c(O)c3)[o+]c2c1 [FISETINIDIN]	70.3 µM
OC[C@H]1O[C@@H](Oc2cc3c(O)cc(O)cc3[o+]c2-c2ccc(O)c(O)c2)[C@H](O)[C@@H](O)[C@@H]1O [KUROMANIN]	6.3 µM
Oc1cc(O)c2ccc(-c3ccc(O)c(O)c3)[o+]c2c1 [LUTEOLINIDIN]	6 µM
O=c1cc(-c2ccc(O)c(O)c2)oc2cc(O)cc(O)c12 [LUTEOLIN]	8.2 µM
COc1cc(-c2[o+]c3cc(O)cc(O)c3cc2O)cc(OC)c1O [MALVIDIN]	17 µM
O=c1c(O)c(-c2cc(O)c(O)c(O)c2)oc2cc(O)cc(O)c12 [MYRICETIN]	24.8 µM
Oc1ccc(-c2[o+]c3cc(O)cc(O)c3cc2O)cc1 [PELARGONIDIN]	16.3 µM
COc1cc(-c2[o+]c3cc(O)cc(O)c3cc2O)cc(O)c1O [PETUNIDIN]	39.2 µM
Oc1cc(O)cc(/C=C/c2ccc(O)c(O)c2)c1 [PICEATANNOL]	> 100 µM
O=c1c(O)c(-c2ccc(O)c(O)c2)oc2cc(O)c(O)c(O)c12 [QUERCETAGETIN]	48.6 µM
O=c1c(O)c(-c2ccc(O)c(O)c2)oc2cc(O)cc(O)c12 [QUERCETIN]	37.9 µM
Oc1ccc(/C=C/c2cc(O)cc(O)c2)cc1 [RESVERATROL]	> 100 µM
O=c1c(O)c(-c2cc(O)c(O)c(O)c2)oc2cc(O)ccc12 [ROBINETIN]	37.9 µM
